Columns and labels:
ICR mice = assay: Carbon tetrachloride (CCl4)-induced hepatic dysfunction model in mice, blood plasma AST and ALT levels; type: in vivo; conditions: male ICR mice; 400 mg/kg/day once-daily oral for three days, then CCl4 0.04 mL/kg i.p.; blood 16 hours after CCl4; compared with group 2 (vehicle+CCl4)
Experimental: GSSSG dihydrate prepared by the method described in Patent Literature 1 was crushed in a mortar. To 10 mL of distilled water, the crushed GSSSG dihydrate (200 mg in terms of anhydride) was added and suspended. Then, twice as much sodium hydrogen carbonate as the GSSSG anhydride was added thereto on a molar basis, and the resultant mixture was mixed for 10 minutes. The obtained GSSSG solution was further diluted with distilled water to obtain administration samples 3 and 4. In addition, reduced glutathione (GSH) or oxidized glutathione (GSSG), manufactured by KYOWA HAKKO BIO Co., Ltd., was dissolved in distilled water to obtain each of administration samples 1 and 2.
Four-week-old male ICR mice (Charles River Laboratories Japan, Inc.) were acclimated for 1 week and then subjected to a test at 5 weeks of age. During the test period, the mice were allowed to freely drink water regarding water, allowed to freely ingest a solid feed CE-2 (CLEA Japan, Inc.), and kept at a temperature of 20° C. to 24° C., a humidity of 50% to 60%, and for 12 hours of light-dark cycle. Thereafter, the mice were divided into groups 1 to 6 so that each group included 3 or 4 mice. • Group 1: Normal (vehicle-no symptoms induced) • Group 2: Vehicle+CCl4 • Group 3: GSH 400 mg/kg/day (administration sample 1)+CCl4 • Group 4: GSSG 400 mg/kg/day (administration sample 2)+CCl4 • Group 5: GSSSG 100 mg/kg/day (administration sample 3)+CCl4
Group 6: GSSSG 400 mg/kg/day (administration sample 4)+CCl4
After the group dividing, the vehicle, the administration sample 1, the administration sample 2, the administration sample 3, or the administration sample 4 was subjected to an once-daily forced oral administration at the above-described dose for a total of three consecutive days. After 30 minutes from the final oral administration, CCl4 (0.04 mL/kg) suspended in olive oil was intraperitoneally administered to induce hepatic dysfunction.

HepG2 cells = assay: Protective effect against hepatocellular damage by hydrogen peroxide in HepG2 cells, cell survival rate by MTT assay; type: cell-based, human; conditions: for Cell survival rate (%): then 0.1 mM hydrogen peroxide for 2 hours, control group = 100; for cell survival rate as compared with the solvent addition group: sample added before 0.1 mM hydrogen peroxide
Experimental: A human hepatoma-derived cell line (HepG2: HB-8065™, Lot number: 70029112) was obtained from American Type Culture Collection, and Dulbecco's Modified Eagle Medium containing 10% FBS (Thermo Fisher Scientific, Inc.) was used as a basal medium. Cells were cultured in an incubator of 37° C. and 5% CO2, and the cells that had been passaged to 16 to 25 generations were subjected to experimentation. The used GSSG and GSSSG were those manufactured by KYOWA HAKKO BIO Co., Ltd.
0.15 mL of a cell suspension obtained by adjusting the initial cell concentration to 2×10^4 cells/mL was seeded in a 96-well plate (Thermo Fisher Scientific, Inc.).
After the culturing for 4 hours from the seeding, GSSSG (for the addition group of the final concentration of 0.05 mM and the addition group of the final concentration of 0.1 mM) was added to the culture medium. In addition, apart from this, a group in which only the solvent of GSSSG (PBS in which sodium hydrogen carbonate was dissolved so that the concentration thereof was 15.8 mM) was added was defined as a solvent addition group. After the culturing for 20 hours from the sample addition, the culture medium was replaced with a culture medium (not containing GSSSG) obtained by adding hydrogen peroxide solution (FUJIFILM Wako Pure Chemical Corporation) to the above-described sample addition group and the solvent addition group so that the final concentration thereof was 0.1 mM, and then hepatocellular damage was induced. The control group was the group in which the same amount of PBS was added to the solvent addition group instead of hydrogen peroxide solution. After the culturing for 2 hours from the addition of hydrogen peroxide solution or PBS, the cell survival rate was measured according to the MTT assay, and the degree of hepatocellular damage was evaluated. For GSSG as well, an experiment was carried out in the same manner as in the GSSSG, except that PBS was used as a solvent.

N[C@@H](CCC(=O)N[C@@H](CS)C(=O)NCC(=O)O)C(=O)O [GSH, reduced glutathione]
blood plasma ALT level (ICR mice): significant suppression
blood plasma AST level (ICR mice): significant suppression

N[C@@H](CCC(=O)N[C@@H](CSSSC[C@H](NC(=O)CC[C@H](N)C(=O)O)C(=O)NCC(=O)O)C(=O)NCC(=O)O)C(=O)O [GSSSG, glutathione trisulfide]
blood plasma ALT level (ICR mice): tendency of the suppression
blood plasma AST level (ICR mice): tendency of the suppression
Cell survival rate (%) (HepG2 cells; sample 0.05 mM for 20 hours): 36.9%
Cell survival rate (%) (HepG2 cells; sample 0.1 mM for 20 hours): 49.7%
cell survival rate as compared with the solvent addition group (HepG2 cells): improved survival rate

oxidized glutathione [GSSG]
blood plasma ALT level (ICR mice): significant suppression
blood plasma AST level (ICR mice): significant suppression
Cell survival rate (%) (HepG2 cells; sample 0.05 mM for 20 hours): 39.4%
Cell survival rate (%) (HepG2 cells; sample 0.1 mM for 20 hours): 38.4%
cell survival rate as compared with the solvent addition group (HepG2 cells): significantly decreased
